How the values were obtained:
Type in all cases: cell-based, human
HCEC = test: Intracellular release of NO (DAF-FM fluorescence) in HCEC; conditions: 75 μM DNIC–COOH or 1 μM DNIC–COOMe
Protocol: (§1) Intracellular release of NO by DNIC–COOH was validated using the fluorescence probe 4-amino-5-methylamino-2′,7′-difluorofluorescein diacetate (DAF-FM) in combination with fluorescence analysis techniques. Briefly, the MSC cells (or N2a and HCEC cells) were seeded onto a 96-well black plate at a density of 6 × 10^3 cells/well (or 1 × 10^4 cells/well for N2a and 8 × 10^3 cells/well for HCEC cells) and incubated at 37 °C overnight. On the next day, the MSC cells were first treated with 10 μM of DAF-FM (or 5 μM for N2a and HCEC cells) and incubated at 37 °C for 0.5 h. […] Fluorescence intensity of the cells was then recorded using a microplate reader (SpectraMax iD3, Molecular Devices, San Jose, CA) with an excitation wavelength at 485 nm and an emission wavelength at 525 nm. Three independent experiments were executed to measure the time-dependent change of average fluorescence intensity. Time-dependent change of average fluorescence intensity for the MSC/N2a/HCEC cells with sequential treatment of DAF-FM (10 μM for MSC cells, 5 μM for N2a cells, 5 μM for HCEC cells; 0.5 h) and DNIC–COOMe (2.5 μM for MSC cells, 10 μM for N2a cells, 1 μM for HCEC cells) was determined in a similar manner. […]

cGMP = test: DNIC-induced cGMP formation in MSC (confocal immunofluorescence); conditions: 100 μM DNIC–COOH or 2.5 μM DNIC–COOMe, 2 h
Protocol: The MSC cells were plated on a cover glass (18 mm in diameter) loaded into a 24-well plate at a density of 1.7 × 10^3 cells/well until the desired confluency was reached. After the culture media were removed, 100 μM of DNIC–COOH (or 2.5 μM of DNIC–COOMe) was added to the cell culture and incubated for 2 h. The culture media were removed before the MSC cells were washed three times with PBS, whereas the washed MSC cells were further fixed with 4% paraformaldehyde (PFA) solution for 15 min at room temperature. After the PFA solution was removed, the MSC cells were washed twice with PBS for 3 min and permeabilized using 0.1% Triton X-100 (in PBS) at room temperature for 4 min. Subsequently, the MSC cells were washed twice with PBS for 3 min and incubated with a blocking buffer (2.5% BSA in PBS) at room temperature for 30 min. Then, the MSC cells were incubated with primary antibody solution (1:1000 for rabbit anti-cGMP antibody, purchased from Biorbyt, Cambridge, U.K.) at room temperature for 1 h before the MSC cells were washed three times with PBS for 3 min. Cover glasses containing the fixed MSC cells were mounted onto a microscope slide loaded with Fluoroshield mounting medium with DAPI to stain the nuclei before the optical images were captured using a confocal imaging system (Leica TCS-SP-X AOBS).

MSC = test: Intracellular release of NO (DAF-FM fluorescence) in MSC; conditions: 100 μM DNIC–COOH or 2.5 μM DNIC–COOMe
Protocol: as §1

Structure (SMILES) | tmax for intracellular release of NO (HCEC) | formation of cGMP (cGMP) | tmax for intracellular release of NO (MSC)
O=[N][Fe]1([N]=O)[SH](CCC(=O)O)[Fe]([N]=O)([N]=O)[SH]1CCC(=O)O (stereo not drawn) [DNIC–COOH, [(NO)2Fe(μ-SCH2CH2COOH)2Fe(NO)2]] | 6 h | elevated formation of cGMP | 4 h
COC(=O)CC[SH]1[Fe]([N]=O)([N]=O)[SH](CCC(=O)OC)[Fe]1([N]=O)[N]=O (stereo not drawn) [DNIC–COOMe, [(NO)2Fe(μ-SCH2CH2COOCH3)2Fe(NO)2]] | 1 h | elevated formation of cGMP | 1 h

— paper PMC11040670, “Mechanistic and Kinetic Insights into Cellular Uptake of Biomimetic Dinitrosyl Iron Complexes and Intracellular Delivery of NO for Activation of Cytoprotective HO-1” (JACS Au, 2024)
